Measured values reported in the kinase profiling compilation of Christmann-Franck et al. (2016).

How the values were obtained:
Assay in all cases: radiometric filter-binding kinase assay, Kinase HotSpot
Details in all cases: compound 0.5 µM; ATP 10 µM
MAP3K5 (human) = MAP3K5 (human) (UniProt Q99683)
GRK7 (human) = GRK7 (human) (UniProt Q8WTQ7)
PDGFRB (human) = PDGFRB (human) (UniProt P09619)
EPHB1 (human) = EPHB1 (human) (UniProt P54762)
MERTK (human) = MERTK (human) (UniProt Q12866)
TTK (human) = TTK (human) (UniProt P33981)
Sequence of TTK (human) (P33981 whole entry, looked up): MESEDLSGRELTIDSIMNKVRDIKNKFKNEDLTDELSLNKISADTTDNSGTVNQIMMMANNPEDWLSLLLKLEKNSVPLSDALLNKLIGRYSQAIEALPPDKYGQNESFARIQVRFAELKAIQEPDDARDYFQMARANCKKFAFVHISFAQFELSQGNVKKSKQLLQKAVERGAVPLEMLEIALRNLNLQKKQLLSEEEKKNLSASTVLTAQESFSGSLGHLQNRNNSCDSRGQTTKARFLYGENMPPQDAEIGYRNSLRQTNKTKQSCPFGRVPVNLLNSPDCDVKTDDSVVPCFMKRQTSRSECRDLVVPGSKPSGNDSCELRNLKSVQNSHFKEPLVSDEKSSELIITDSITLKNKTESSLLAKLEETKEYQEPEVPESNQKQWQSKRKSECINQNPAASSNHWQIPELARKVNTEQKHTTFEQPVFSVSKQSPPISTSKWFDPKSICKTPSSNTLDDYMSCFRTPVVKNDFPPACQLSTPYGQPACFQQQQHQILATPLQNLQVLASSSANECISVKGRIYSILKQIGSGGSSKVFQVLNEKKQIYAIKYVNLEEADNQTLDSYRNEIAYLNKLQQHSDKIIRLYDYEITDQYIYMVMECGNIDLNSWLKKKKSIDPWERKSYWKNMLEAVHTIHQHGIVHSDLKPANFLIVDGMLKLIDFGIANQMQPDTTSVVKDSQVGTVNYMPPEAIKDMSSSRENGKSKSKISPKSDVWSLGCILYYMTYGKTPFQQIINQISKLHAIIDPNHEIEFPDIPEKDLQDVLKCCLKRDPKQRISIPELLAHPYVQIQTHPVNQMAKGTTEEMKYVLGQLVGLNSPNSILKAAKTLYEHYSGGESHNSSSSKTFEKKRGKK

CDC42BPA (human) = CDC42BPA (human) (UniProt Q5VT25)
TSSK2 (human) = TSSK2 (human) (UniProt Q96PF2)
CDK9 CCNK (human) = CDK9 CCNK (human) (UniProt O75909+P50750)
NEK11 (human) = NEK11 (human) (UniProt Q8NG66)
AURKA (human) = AURKA (human) (UniProt O14965)
Sequence of AURKA (human) (O14965 whole entry, looked up): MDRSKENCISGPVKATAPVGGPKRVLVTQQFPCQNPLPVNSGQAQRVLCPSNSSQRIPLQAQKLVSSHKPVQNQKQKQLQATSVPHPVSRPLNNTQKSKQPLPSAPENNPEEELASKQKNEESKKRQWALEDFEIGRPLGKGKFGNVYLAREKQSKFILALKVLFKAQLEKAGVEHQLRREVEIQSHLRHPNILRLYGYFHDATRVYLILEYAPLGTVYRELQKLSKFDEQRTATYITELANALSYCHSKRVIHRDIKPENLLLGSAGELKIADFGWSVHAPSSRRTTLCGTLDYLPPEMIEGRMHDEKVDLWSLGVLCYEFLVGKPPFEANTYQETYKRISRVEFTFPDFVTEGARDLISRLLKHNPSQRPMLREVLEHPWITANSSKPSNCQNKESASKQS

PAK3 (human) = PAK3 (human) (UniProt O75914)
MAP3K10 (human) = MAP3K10 (human) (UniProt Q02779)
CDK1 CCNB1 (human) = CDK1 CCNB1 (human) (UniProt P06493+P14635)
Sequence of CDK1 CCNB1 (human) (P06493 whole entry, looked up): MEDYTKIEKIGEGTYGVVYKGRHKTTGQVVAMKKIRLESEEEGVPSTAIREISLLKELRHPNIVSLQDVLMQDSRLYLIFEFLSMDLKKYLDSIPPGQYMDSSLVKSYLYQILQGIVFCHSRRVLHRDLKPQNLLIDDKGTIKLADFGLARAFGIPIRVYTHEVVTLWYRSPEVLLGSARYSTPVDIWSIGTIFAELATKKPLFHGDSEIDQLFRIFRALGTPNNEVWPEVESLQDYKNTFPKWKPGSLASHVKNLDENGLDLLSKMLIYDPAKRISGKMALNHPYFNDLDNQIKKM
Sequence of CDK1 CCNB1 (human) (P14635 whole entry, looked up): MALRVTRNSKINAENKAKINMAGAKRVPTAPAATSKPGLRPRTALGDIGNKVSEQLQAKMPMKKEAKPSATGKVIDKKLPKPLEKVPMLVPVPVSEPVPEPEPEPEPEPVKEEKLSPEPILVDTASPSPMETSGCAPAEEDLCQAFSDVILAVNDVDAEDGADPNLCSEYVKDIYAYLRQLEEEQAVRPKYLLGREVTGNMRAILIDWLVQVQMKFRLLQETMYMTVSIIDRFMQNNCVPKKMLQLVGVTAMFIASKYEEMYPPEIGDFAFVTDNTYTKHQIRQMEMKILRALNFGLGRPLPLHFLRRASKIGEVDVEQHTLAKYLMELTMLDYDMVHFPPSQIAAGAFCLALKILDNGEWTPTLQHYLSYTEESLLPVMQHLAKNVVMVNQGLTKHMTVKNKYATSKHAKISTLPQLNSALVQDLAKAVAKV

ROCK1 (human) = ROCK1 (human) (UniProt Q13464)
TNK2 (human) = TNK2 (human) (UniProt Q07912)
MAP3K14 (human) = MAP3K14 (human) (UniProt Q99558)
RIPK2 (human) = RIPK2 (human) (UniProt O43353)
Sequence of RIPK2 (human) (O43353 whole entry, looked up): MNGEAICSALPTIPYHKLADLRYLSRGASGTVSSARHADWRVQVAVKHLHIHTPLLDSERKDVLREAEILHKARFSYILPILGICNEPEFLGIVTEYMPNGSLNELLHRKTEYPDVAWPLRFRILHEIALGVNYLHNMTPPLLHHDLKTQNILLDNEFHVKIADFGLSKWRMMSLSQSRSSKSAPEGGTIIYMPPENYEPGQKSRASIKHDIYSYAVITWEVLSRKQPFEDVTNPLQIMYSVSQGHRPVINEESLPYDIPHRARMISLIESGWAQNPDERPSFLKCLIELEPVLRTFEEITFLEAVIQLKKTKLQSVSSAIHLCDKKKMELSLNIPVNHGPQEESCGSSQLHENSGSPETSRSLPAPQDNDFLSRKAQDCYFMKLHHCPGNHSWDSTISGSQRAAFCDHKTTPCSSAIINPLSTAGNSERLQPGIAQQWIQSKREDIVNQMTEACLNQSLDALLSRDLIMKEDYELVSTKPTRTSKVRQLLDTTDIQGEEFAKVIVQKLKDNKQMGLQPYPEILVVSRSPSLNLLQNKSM

CSF1R (human) = CSF1R (human) (UniProt P07333)
CDK2 CCNA2 (human) = CDK2 CCNA2 (human) (UniProt P24941+P20248)
CAMK1 (human) = CAMK1 (human) (UniProt Q14012)
MARK1 (human) = MARK1 (human) (UniProt Q9P0L2)
TGFBR2 (human) = TGFBR2 (human) (UniProt P37173)
ERBB4 (human) = ERBB4 (human) (UniProt Q15303)
MAPKAPK5 (human) = MAPKAPK5 (human) (UniProt Q8IW41)
CAMKK2 (human) = CAMKK2 (human) (UniProt Q96RR4)
MAPK11 (human) = MAPK11 (human) (UniProt Q15759)
PRKCI (human) = PRKCI (human) (UniProt P41743)
Sequence of PRKCI (human) (P41743 whole entry, looked up): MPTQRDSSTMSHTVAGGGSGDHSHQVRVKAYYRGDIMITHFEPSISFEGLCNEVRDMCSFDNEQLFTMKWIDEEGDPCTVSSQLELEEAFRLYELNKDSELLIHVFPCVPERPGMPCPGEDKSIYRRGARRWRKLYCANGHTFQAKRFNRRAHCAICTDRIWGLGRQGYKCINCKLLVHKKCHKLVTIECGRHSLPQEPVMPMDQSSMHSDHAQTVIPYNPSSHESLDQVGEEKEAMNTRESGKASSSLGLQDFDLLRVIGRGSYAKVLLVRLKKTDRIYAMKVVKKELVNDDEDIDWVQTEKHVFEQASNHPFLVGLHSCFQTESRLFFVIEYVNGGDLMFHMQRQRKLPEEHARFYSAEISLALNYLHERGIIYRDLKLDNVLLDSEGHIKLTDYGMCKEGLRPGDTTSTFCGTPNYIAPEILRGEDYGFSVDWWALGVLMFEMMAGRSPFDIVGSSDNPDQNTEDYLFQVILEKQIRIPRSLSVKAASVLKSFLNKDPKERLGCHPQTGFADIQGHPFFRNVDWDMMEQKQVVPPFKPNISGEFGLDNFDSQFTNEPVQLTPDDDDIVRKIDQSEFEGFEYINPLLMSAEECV

TAOK1 (human) = TAOK1 (human) (UniProt Q7L7X3)
FGFR2 (human) = FGFR2 (human) (UniProt P21802)
CDK7 CCNH MNAT1 (human) = CDK7 CCNH MNAT1 (human) (UniProt P50613+P51948+P51946)
PKN1 (human) = PKN1 (human) (UniProt Q16512)
IRAK1 (human) = IRAK1 (human) (UniProt P51617)
MAPKAPK3 (human) = MAPKAPK3 (human) (UniProt Q16644)
PTK2 (human) = PTK2 (human) (UniProt Q05397)
DYRK2 (human) = DYRK2 (human) (UniProt Q92630)
Sequence of DYRK2 (human) (Q92630 whole entry, looked up): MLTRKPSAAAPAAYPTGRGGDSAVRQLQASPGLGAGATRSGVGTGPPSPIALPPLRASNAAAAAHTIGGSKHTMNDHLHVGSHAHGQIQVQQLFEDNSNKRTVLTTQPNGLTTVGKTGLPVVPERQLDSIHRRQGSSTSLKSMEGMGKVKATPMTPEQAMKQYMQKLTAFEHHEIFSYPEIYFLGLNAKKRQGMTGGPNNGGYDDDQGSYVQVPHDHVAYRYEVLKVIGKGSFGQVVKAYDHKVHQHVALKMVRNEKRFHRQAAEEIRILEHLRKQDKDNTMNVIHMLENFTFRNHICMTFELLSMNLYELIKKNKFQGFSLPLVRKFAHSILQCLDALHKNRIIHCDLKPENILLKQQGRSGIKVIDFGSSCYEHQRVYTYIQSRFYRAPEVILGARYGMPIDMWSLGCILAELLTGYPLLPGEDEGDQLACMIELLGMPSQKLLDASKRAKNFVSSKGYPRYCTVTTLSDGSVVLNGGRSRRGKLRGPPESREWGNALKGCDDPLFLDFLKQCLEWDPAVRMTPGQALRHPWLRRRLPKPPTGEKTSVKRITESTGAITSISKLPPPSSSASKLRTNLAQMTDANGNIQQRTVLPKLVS

CDK6 CCND3 (human) = CDK6 CCND3 (human) (UniProt P30281+Q00534)
PKN2 (human) = PKN2 (human) (UniProt Q16513)
CDK5 CDK5R1 p35 (human) = CDK5 CDK5R1 p35 (human) (UniProt Q00535+Q15078)
MYLK2 (human) = MYLK2 (human) (UniProt Q9H1R3)
Sequence of MYLK2 (human) (Q9H1R3 whole entry, looked up): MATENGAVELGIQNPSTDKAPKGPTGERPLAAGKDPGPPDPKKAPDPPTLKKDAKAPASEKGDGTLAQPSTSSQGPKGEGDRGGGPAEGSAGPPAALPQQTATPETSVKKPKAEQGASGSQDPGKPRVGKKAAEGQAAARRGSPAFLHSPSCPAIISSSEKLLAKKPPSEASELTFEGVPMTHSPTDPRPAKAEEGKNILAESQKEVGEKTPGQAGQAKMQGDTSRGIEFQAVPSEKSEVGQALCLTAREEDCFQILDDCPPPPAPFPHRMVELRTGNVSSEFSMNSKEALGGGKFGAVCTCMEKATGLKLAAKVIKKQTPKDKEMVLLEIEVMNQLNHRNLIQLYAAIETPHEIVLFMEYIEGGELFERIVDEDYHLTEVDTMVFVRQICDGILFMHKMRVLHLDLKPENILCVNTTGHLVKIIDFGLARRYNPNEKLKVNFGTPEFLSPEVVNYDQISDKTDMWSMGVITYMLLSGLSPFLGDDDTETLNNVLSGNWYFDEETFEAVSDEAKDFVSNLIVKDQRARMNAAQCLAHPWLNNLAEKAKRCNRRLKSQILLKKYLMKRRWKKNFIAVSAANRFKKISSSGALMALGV

PRKCE (human) = PRKCE (human) (UniProt Q02156)

Sequence of GRK7 (human) (Q8WTQ7 whole entry, looked up): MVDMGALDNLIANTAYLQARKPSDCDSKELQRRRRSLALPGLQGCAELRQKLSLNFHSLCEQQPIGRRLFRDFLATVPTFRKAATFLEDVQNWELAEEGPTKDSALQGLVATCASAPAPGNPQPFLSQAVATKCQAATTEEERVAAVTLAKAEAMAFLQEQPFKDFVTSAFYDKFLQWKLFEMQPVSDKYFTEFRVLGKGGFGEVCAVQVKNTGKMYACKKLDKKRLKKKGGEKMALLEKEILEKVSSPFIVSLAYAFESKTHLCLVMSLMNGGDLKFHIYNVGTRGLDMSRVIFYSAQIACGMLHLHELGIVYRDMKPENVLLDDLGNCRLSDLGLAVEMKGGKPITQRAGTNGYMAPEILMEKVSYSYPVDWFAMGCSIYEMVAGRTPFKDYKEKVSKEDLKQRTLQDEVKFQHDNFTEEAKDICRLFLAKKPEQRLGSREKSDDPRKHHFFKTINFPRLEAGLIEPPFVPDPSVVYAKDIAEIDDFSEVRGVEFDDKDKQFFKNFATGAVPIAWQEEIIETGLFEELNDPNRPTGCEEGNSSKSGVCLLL

SMILES | residual activity (MAP3K5 (human)) [%] | residual activity (GRK7 (human)) [%] | residual activity (PDGFRB (human)) [%] | residual activity (EPHB1 (human)) [%] | residual activity (MERTK (human)) [%] | residual activity (TTK (human)) [%] | residual activity (CDC42BPA (human)) [%] | residual activity (TSSK2 (human)) [%] | residual activity (CDK9 CCNK (human)) [%] | residual activity (NEK11 (human)) [%] | residual activity (AURKA (human)) [%] | residual activity (PAK3 (human)) [%] | residual activity (MAP3K10 (human)) [%] | residual activity (CDK1 CCNB1 (human)) [%] | residual activity (ROCK1 (human)) [%] | residual activity (TNK2 (human)) [%] | residual activity (MAP3K14 (human)) [%] | residual activity (RIPK2 (human)) [%] | residual activity (CSF1R (human)) [%] | residual activity (CDK2 CCNA2 (human)) [%] | also measured
O=C1C(Cl)=C(N2C(=O)CCC2=O)C(=O)c2ccccc21 | 99.1 | 109 | 103 | 97.2 | 90.3 | 108 | 103 | 103 | 97.2 | 101 | 105 | 104 | 92.8 | 118 | 106 | 91.5 | 102 | 84.8 | 102 | 109 | residual activity (CAMK1 (human)): 98.3%; residual activity (MARK1 (human)): 99.3%; residual activity (TGFBR2 (human)): 130%; residual activity (ERBB4 (human)): 110%; residual activity (MAPKAPK5 (human)): 73.6%; residual activity (CAMKK2 (human)): 86.1%; residual activity (MAPK11 (human)): 105%; residual activity (PRKCI (human)): 96.6%; residual activity (TAOK1 (human)): 83.1%; residual activity (FGFR2 (human)): 102%; residual activity (CDK7 CCNH MNAT1 (human)): 101%; residual activity (PKN1 (human)): 108%; residual activity (IRAK1 (human)): 101%; residual activity (MAPKAPK3 (human)): 103%; residual activity (PTK2 (human)): 98.4%; residual activity (DYRK2 (human)): 98.6%; residual activity (CDK6 CCND3 (human)): 99.2%; residual activity (PKN2 (human)): 108%; residual activity (CDK5 CDK5R1 p35 (human)): 93.7%; residual activity (MYLK2 (human)): 98.1%
CN(C)CCCn1cc(C2=C(c3c[nH]c4ccccc34)C(=O)NC2=O)c2ccccc21 | 90.2 | 60.4 | 78.1 | 87.4 | 92.1 | 98.2 | 97.1 | 97.3 | 60.3 | 104 | 108 | 92.1 | 81.8 | 92 | 92.3 | 94.7 | 110 | 87.7 | 76.7 | 85.2 | residual activity (PRKCE (human)): 0.493%; residual activity (CAMK1 (human)): 82.7%; residual activity (MARK1 (human)): 84.1%; residual activity (TGFBR2 (human)): 90.4%; residual activity (ERBB4 (human)): 87.7%; residual activity (MAPKAPK5 (human)): 93.7%; residual activity (CAMKK2 (human)): 59.8%; residual activity (MAPK11 (human)): 96.1%; residual activity (PRKCI (human)): 55.9%; residual activity (TAOK1 (human)): 80.8%; residual activity (FGFR2 (human)): 95.4%; residual activity (CDK7 CCNH MNAT1 (human)): 92.1%; residual activity (IRAK1 (human)): 91.1%; residual activity (MAPKAPK3 (human)): 95.3%; residual activity (PTK2 (human)): 86.1%; residual activity (DYRK2 (human)): 111%; residual activity (CDK6 CCND3 (human)): 73.3%; residual activity (PKN2 (human)): 72.1%; residual activity (CDK5 CDK5R1 p35 (human)): 90%; residual activity (MYLK2 (human)): 73.9%
O=C1c2ccccc2-c2nc3nnnn3nc21 | 106 | 78.1 | 11.3 | 89.5 | 93.1 | 125 | 91.6 | 75 | 74.4 | 88 | 71.4 | 97.1 | 94.6 | 48 | 94.5 | 44.9 | 124 | 101 | 11.6 | 70.3 | residual activity (PRKCE (human)): 99%; residual activity (CAMK1 (human)): 68.7%; residual activity (MARK1 (human)): 98.2%; residual activity (TGFBR2 (human)): 93.4%; residual activity (ERBB4 (human)): 50.2%; residual activity (MAPKAPK5 (human)): 66.9%; residual activity (CAMKK2 (human)): 76.9%; residual activity (MAPK11 (human)): 101%; residual activity (PRKCI (human)): 85.7%; residual activity (TAOK1 (human)): 90.2%; residual activity (FGFR2 (human)): 59.4%; residual activity (CDK7 CCNH MNAT1 (human)): 94.1%; residual activity (PKN1 (human)): 97.5%; residual activity (IRAK1 (human)): 77.6%; residual activity (MAPKAPK3 (human)): 76%; residual activity (DYRK2 (human)): 113%; residual activity (CDK6 CCND3 (human)): 9.93%; residual activity (PKN2 (human)): 77.1%; residual activity (CDK5 CDK5R1 p35 (human)): 79.1%; residual activity (MYLK2 (human)): 88.1%
